Values joined by “and” are separate entries in the source; they are usually repeats but may differ in a detail not shown here. Equal entries are not always repeated.
How the values were obtained:
HepG2 = test: Repeated-exposure DILI training compounds, resazurin conversion, HepG2
In short: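 Hepatotoxicity prediction used a miniaturized 384-well differentiation setup, scoring viability through resazurin reduction relative to Cmax.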

HLC = test: Repeated-exposure DILI training compounds, resazurin conversion, HLC
In short: (§1)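 PSC-derived hepatocyte-like cells were differentiated in 384-well plates, and drugs were added after 8 h of attachment. Viability was measured by resazurin conversion and related to therapeutic Cmax values, with untreated wells as negative control.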

HC3X = test: Repeated-exposure DILI training compounds, resazurin conversion, HC3X; conditions: for Resazurin conversion, repeated exposure (Supplementary Figure 7D): HC3X AAGLY D40
In short: as §1

HC6X = test: Repeated-exposure DILI training compounds, resazurin conversion, HC6X
In short: as §1

Q: Cc1ccc(C(=O)c2cc(O)c(O)c([N+](=O)[O-])c2)cc1 [tolcapone] was tested. Which “Resazurin conversion, repeated exposure (Supplementary Figure 7D)” value (“Resazurin conversion, repeated exposure” for short) (HepG2; HepG2 AAGLY D30, 10 uM) did it give?
A: 106.6 and 108.2 and 105.6 and 120.1 and 84.5 and 128.6

Q: And the “Resazurin conversion, repeated exposure” value (HepG2; HepG2 AAGLY D30, 30 uM)?
A: 144.6 and 128.4 and 104.2 and 136.2 and 93.4 and 133.6

Q: And the “Resazurin conversion, repeated exposure” value (HepG2; HepG2 AAGLY D30, 50 uM)?
A: 126.9 and 134.9 and 97.9 and 148.8 and 105 and 143.9

Q: What about the “Resazurin conversion, repeated exposure” value (HepG2; HepG2 AAGLY D30, 300 uM) of the same compound?
A: 44.5 and 61.6 and 62 and 66.8 and 60.8 and 73.6

Q: What about the “Resazurin conversion, repeated exposure” value (HepG2; HepG2 AAGLY D30, 500 uM) of the same compound?
A: 48.7 and 42.4 and 39.6 and 41.5 and 43.3 and 45.5

Q: What about the “Resazurin conversion, repeated exposure” value (HepG2; HepG2 AAGLY D30, 1000 uM) of the same compound?
A: 27.5 and 27.3 and 26.8 and 27.1 and 27.8

Q: And the “Resazurin conversion, repeated exposure” value (HepG2; HepG2 AAGLY D30, 2000 uM)?
A: 22.7 and 22.5 and 22.2 and 22.1 and 22.4

Q: What about the “Resazurin conversion, repeated exposure” value (HepG2; HepG2 AAGLY D30, 4000 uM) of the same compound?
A: 15.8 and 14.5 and 14.4 and 13.5 and 14.3

Q: And the “Resazurin conversion, repeated exposure” value (HepG2; HepG2 CTL D7, 10 uM)?
A: 87 and 84.9 and 85.9 and 110.7 and 87.4 and 87.2

Q: And the “Resazurin conversion, repeated exposure” value (HepG2; HepG2 CTL D7, 30 uM)?
A: 113.4 and 88.9 and 98.2 and 86.8 and 100.5 and 86.2

Q: What about the “Resazurin conversion, repeated exposure” value (HepG2; HepG2 CTL D7, 300 uM) of the same compound?
A: 8.3 and 8 and 7.5 and 8.8 and 8.1

Q: And the “Resazurin conversion, repeated exposure” value (HepG2; HepG2 CTL D7, 500 uM)?
A: 7.3 and 6.8 and 6.5 and 6.6 and 6.7

Q: What about the “Resazurin conversion, repeated exposure” value (HepG2; HepG2 CTL D7, 1000 uM) of the same compound?
A: 6.4 and 5.9 and 5.8 and 5.6

Q: What about the “Resazurin conversion, repeated exposure” value (HepG2; HepG2 CTL D7, 2000 uM) of the same compound?
A: 4.8 and 4.4 and 4

Q: What about the “Resazurin conversion, repeated exposure” value (HepG2; HepG2 CTL D7, 4000 uM) of the same compound?
A: 2.3 and 2.5 and 2.2 and 2.1 and 2 and 2.6

Q: And the “Resazurin conversion, repeated exposure” value (HLC; HLC AAGLY D40, 10 uM)?
A: 89.6 and 98.4 and 93.9 and 112.4 and 126.3 and 99.4

Q: What about the “Resazurin conversion, repeated exposure” value (HLC; HLC AAGLY D40, 100 uM) of the same compound?
A: 143.7 and 88 and 126.1 and 79.6 and 153.9 and 130.7

Q: And the “Resazurin conversion, repeated exposure” value (HLC; HLC AAGLY D40, 500 uM)?
A: 86.2 and 108.3 and 80.7 and 126.4 and 91.4 and 111.1

Q: What about the “Resazurin conversion, repeated exposure” value (HLC; HLC AAGLY D40, 1000 uM) of the same compound?
A: 80.1 and 96.8 and 72.2 and 70.6 and 94.2 and 112.4

Q: And the “Resazurin conversion, repeated exposure” value (HLC; HLC LDM D40, 10 uM)?
A: 110.5 and 107.3 and 79 and 94.2 and 118.4 and 85.4

Q: And the “Resazurin conversion, repeated exposure” value (HLC; HLC LDM D40, 50 uM)?
A: 117.3 and 84.9 and 88.5 and 107.2 and 94.9 and 106

Q: What about the “Resazurin conversion, repeated exposure” value (HLC; HLC LDM D40, 100 uM) of the same compound?
A: 136.2 and 145.5 and 129 and 115.8 and 107.1 and 144.8

Q: And the “Resazurin conversion, repeated exposure” value (HLC; HLC LDM D40, 500 uM)?
A: 60.4 and 57.9 and 62.5 and 68.7 and 54 and 73.8

Q: What about the “Resazurin conversion, repeated exposure” value (HLC; HLC LDM D40, 4000 uM) of the same compound?
A: 25.6 and 16.8 and 16.1 and 16 and 13.5 and 19.7

Q: What about the “Resazurin conversion, repeated exposure” value (HC3X; 10 uM) of the same compound?
A: 139.4 and 142.8 and 150.5 and 156.1 and 95.1 and 108.2

Q: What about the “Resazurin conversion, repeated exposure” value (HC3X; 30 uM) of the same compound?
A: 50.8 and 58.9 and 61.5 and 64.6 and 88.9 and 76.4

Q: What about the “Resazurin conversion, repeated exposure” value (HC3X; 300 uM) of the same compound?
A: 8.4 and 7.7 and 8 and 9.1 and 9.2

Q: What about the “Resazurin conversion, repeated exposure” value (HC3X; 500 uM) of the same compound?
A: 11.6 and 15.4 and 8.7 and 13.6 and 11.8 and 12.2

Q: What about the “Resazurin conversion, repeated exposure” value (HC3X; 1000 uM) of the same compound?
A: 6.7 and 6.6 and 6.4 and 6.5 and 7.5 and 9.6

Q: And the “Resazurin conversion, repeated exposure” value (HC3X; 2000 uM)?
A: 4.2 and 4.1 and 4.6

Q: And the “Resazurin conversion, repeated exposure” value (HC3X; 4000 uM)?
A: 3.1 and 3.3 and 3 and 3.2 and 3.4

Q: What about the IC50/Cmax (HC3X; human) of the same compound?
A: 0.83

Q: What about the “Resazurin conversion, repeated exposure” value (HC6X; HC6X AAGLY D40, 10 uM) of the same compound?
A: 103.7 and 134.6 and 82 and 87 and 83.1 and 109.6

Q: And the “Resazurin conversion, repeated exposure” value (HC6X; HC6X AAGLY D40, 30 uM)?
A: 98.2 and 113.2 and 82.9 and 88.4 and 81.1 and 97.8

Q: What about the “Resazurin conversion, repeated exposure” value (HC6X; HC6X AAGLY D40, 100 uM) of the same compound?
A: 47.9 and 57 and 49.7 and 51.8 and 54.9 and 72.8

Q: What about the “Resazurin conversion, repeated exposure” value (HC6X; HC6X AAGLY D40, 300 uM) of the same compound?
A: 39.5 and 40.5 and 38.8 and 59.9 and 40.3 and 47.8

Q: And the “Resazurin conversion, repeated exposure” value (HC6X; HC6X AAGLY D40, 500 uM)?
A: 34.3 and 39.2 and 30.7 and 33.5 and 40.3 and 34.2

Q: What about the “Resazurin conversion, repeated exposure” value (HC6X; HC6X AAGLY D40, 1000 uM) of the same compound?
A: 31.1 and 26.7 and 26.3 and 27.6 and 26.5

Q: What about the “Resazurin conversion, repeated exposure” value (HC6X; HC6X AAGLY D40, 2000 uM) of the same compound?
A: 22.1 and 28.3 and 22.3 and 22.5 and 23 and 22.4

Q: And the “Resazurin conversion, repeated exposure” value (HC6X; HC6X AAGLY D40, 4000 uM)?
A: 17.8 and 17.3 and 16.6 and 16.3 and 16.4 and 16.8

Q: And the “Resazurin conversion, repeated exposure” value (HC6X; HC6X AAGLY D40 Remove dox, 30 uM)?
A: 108.6 and 121.2 and 103 and 112.9 and 119.8 and 93.5

Q: And the “Resazurin conversion, repeated exposure” value (HC6X; HC6X AAGLY D40 Remove dox, 50 uM)?
A: 77 and 153.8 and 144.7 and 105.2 and 81.9 and 88.4

Q: What about the “Resazurin conversion, repeated exposure” value (HC6X; HC6X AAGLY D40 Remove dox, 1000 uM) of the same compound?
A: 78.8 and 118 and 78.9 and 118.9 and 81.8 and 105.5
